This assay has as its target T1, ALK5 kinase (Homo sapiens, UniProt P36897).
T1 construct: GST; purchased Thermo Fisher Scientific Solutions
T1 sequence (P36897 34-503): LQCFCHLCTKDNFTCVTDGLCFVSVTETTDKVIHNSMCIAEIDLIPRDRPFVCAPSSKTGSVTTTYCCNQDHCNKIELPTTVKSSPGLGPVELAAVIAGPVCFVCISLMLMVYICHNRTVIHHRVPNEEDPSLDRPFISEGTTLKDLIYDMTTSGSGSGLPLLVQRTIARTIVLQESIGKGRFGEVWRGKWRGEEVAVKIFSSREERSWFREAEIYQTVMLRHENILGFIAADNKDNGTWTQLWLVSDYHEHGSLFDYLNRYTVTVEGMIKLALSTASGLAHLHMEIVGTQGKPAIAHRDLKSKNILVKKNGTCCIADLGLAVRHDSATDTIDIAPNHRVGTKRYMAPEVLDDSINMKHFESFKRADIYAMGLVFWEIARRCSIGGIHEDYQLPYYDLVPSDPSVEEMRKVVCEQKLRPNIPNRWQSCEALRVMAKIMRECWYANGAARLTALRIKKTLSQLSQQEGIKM
Briefly: Activity inhibition test on ALK5 enzyme (LanthaScreen Eu binding kinase assay). Particulars: kinase tracer 178, 60 minutes at room temperature. In outline: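 IC50 is the concentration giving 50% inhibition relative to control, taken from fluorescence after 60 min stirring at room temperature. Final mix held kinase 5 nM, Eu-GST binding antibody 2 nM and tracer 178 10 nM. Compounds were serially diluted from 1 μM to 0.0001 μM.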
Background: TR-FRET usually uses a lanthanide donor and a delayed reading to cut background.

The term IC50 denotes the concentration at which inhibition is half-maximal. Regarding `Cc1cccc(-n2nc(C(=O)Nc3ccc(S(C)(=O)=O)cc3)cc2-c2ccc(F)c(-c3cnn(CCO)c3)c2)n1` [Example 226, N-(4-(methylsulfonyl)phenyl)-5-(4-fluoro-3-(1-(2-hydroxyethyl)-1H-pyrazol-4-yl)phenyl)-1-(6-methylpyridin-2-yl)-1H-pyrazole-3-carboxyamide], the IC50 turned out to be 4.7 nM.

Turning to `Cc1cccc(-n2nc(C(=O)Nc3ccccc3F)cc2-c2cc3cnccc3s2)c1` [Example 227, N-(2-fluorophenyl)-5-(thieno[3,2,c]pyridin-2-yl)-1-(m-tolyl)-1H-pyrazole-3-carboxyamide], the IC50 was approximately 100 nM.

The record behind these values is patent US10954232B2, “Pyrazole derivative as ALK5 inhibitor and uses thereof” (HANMI PHARMACEUTICAL CO., LTD., priority 2016, dated 2021).
